Drawing on BindingDB's records for patent US10676479 (Novartis AG, 2020), this text covers IC50 for three compounds.

SMILES strings stand for the structures.

Polycomb protein EED, sequence (O75530 whole entry): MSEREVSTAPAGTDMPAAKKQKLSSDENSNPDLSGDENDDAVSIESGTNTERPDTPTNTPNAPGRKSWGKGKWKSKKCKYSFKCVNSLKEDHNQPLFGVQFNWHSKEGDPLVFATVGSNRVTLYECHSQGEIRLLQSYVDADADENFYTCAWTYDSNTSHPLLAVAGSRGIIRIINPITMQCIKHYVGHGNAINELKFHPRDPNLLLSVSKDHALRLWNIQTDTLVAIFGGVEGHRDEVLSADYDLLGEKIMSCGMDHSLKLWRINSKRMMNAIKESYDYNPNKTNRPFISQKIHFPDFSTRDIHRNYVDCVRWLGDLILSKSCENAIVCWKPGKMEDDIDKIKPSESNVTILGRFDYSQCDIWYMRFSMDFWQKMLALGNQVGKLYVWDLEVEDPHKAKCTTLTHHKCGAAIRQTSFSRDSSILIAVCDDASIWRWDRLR

The target in the assay is Polycomb protein EED (Homo sapiens, UniProt O75530). The assay is described as follows: EED-H3K27Me3 Peptide Competition Binding Assay by AlphaScreen. The protocol:
Then 4 μL of detection beads mix was added to the plate and incubate in the dark at the rt for 1 h. The final concentration of donor and acceptor beads was 10 μg/mL for each. […] The data were then fit to a dose response equation using the program Helios (Novartis) to get the IC50 values. […] Compounds were diluted as described in the preceding section, and the assay was performed by adding 12 μL of 10 nM biotin-miniPEG-His6 peptide in the above buffer and incubating for 20 min at rt prior to addition of the beads to 10 μg/mL each. The plates were then incubated for 1 h at rt in dark before being read on EnVison.
For the compound `CCN1CCN(c2ccc(-c3cnc(NCc4c(F)ccc5c4CCO5)n4cnc(C#N)c34)cn2)CC1` [US10676479, Example 81], the IC50 is 24.9 nM.
To `Cc1ncccc1-c1cnc(NCc2c(F)ccc3c2CCO3)n2cnc(C(=O)NC3COC3)c12` [US10676479, Example 106] belongs 7 nM.
Then `CS(=O)(=O)c1ccc(-c2cnc(NCc3c(F)ccc4c3CCO4)n3cnc(-c4ccccc4)c23)cc1` [US10676479, Example 110], with 8.1 nM.
